Reference: patent US7432276B2, “ABCA1 elevating compounds” (CV Therapeutics, Inc., priority 2005, dated 2008)

system: ABCA1 mRNA; assay: ABCA1 mRNA induction in THP-1 cells, QuantiGene branched DNA assay; assay type: cell-based; settings: 10 μM test compound, 18-20 hours
Summary of the method: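 THP-1 cells, grown to subconfluence, treated with compounds at 10 and 3 μM in DMEM/BSA for 18–20 h. Lysates hybridized with ABCA1-specific probe 16–18 h at 53 °C; QuantiGene branched DNA luminescence gives fold increase over DMSO.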

First: COc1cccc2c1OCC1C2Nc2ccc(-c3nnn[nH]3)cc2C1(C)C (stereo not shown) [Number 19, 4-methoxy-7,7-dimethyl-9-(1,2,3,4-tetraazol-5-yl)-7,12,12a,6a-tetrahydrochromano[4,3-b]quinoline]
Second: COc1cccc2c1OC[C@@H]1[C@@H]2Nc2ccc(Br)cc2C1(C)C [Number 87, (12aS,6aS)-9-bromo-4-methoxy-7,7-dimethyl-7,12,12a,6a-tetrahydrochromano[4,3-b]quinoline]
The “ABCA1 Induction Fold Increase over DMSO Vehicle” value (from here on “ABCA1 Induction Fold Increase”) of the first is lower: 5.6 FOLD INCREASE for the first, 7.4 FOLD INCREASE for the second.

Going from `COc1ccc(Br)c2c1OCC1C2Nc2ccc(-c3cnco3)cc2C1(C)C` (stereo not shown) [Number 79, 1-bromo-4-methoxy-7,7-dimethyl-9-(1,3-oxazol-5-yl)-7,12,12a,6a-tetrahydrochromano[4,3-b]quinoline] to `COc1ccc(Br)c2c1OCC1C2Nc2ccc(C(C)=O)cc2C1(C)C` (stereo not shown) [Number 80, 1-(1-bromo-4-methoxy-7,7-dimethyl-7,12,12a,6a-tetrahydrochromano[4,3-b]quinolin-9-yl)ethan-1-one], the “ABCA1 Induction Fold Increase” value rises from 4.1 FOLD INCREASE to 4.3 FOLD INCREASE.

Compared with `CCS(=O)(=O)N1CCN(C(=O)c2cnn(-c3ccc4c(c3)C(C)(C)[C@H]3COc5cccc(F)c5[C@H]3N4)c2C)CC1` [Number 144, 1-((6aR,12aS)-6a,7,12,12a-tetrahydro-1-fluoro-7,7-dimethyl-6H-chromeno[4,3-b]quinolin-9-yl)-5-methyl-1H-pyrazole-4-((4-ethanesulfonylpiperazin-1-yl)methanone)], `COc1cccc2c1[C@H]1Nc3ccc(-c4csc(C)n4)cc3C(C)(C)[C@H]1CO2` [Number 110, (12aS,6aR)-1-methoxy-7,7-dimethyl-9-(2-methyl(1,3-thiazol-4-yl))-7,12,12a,6a-tetrahydrochromano[4,3-b]quinoline] is higher in “ABCA1 Induction Fold Increase” value: 2.1 FOLD INCREASE for the first, 6.0 FOLD INCREASE for the second.

Going from `CC(C)=CCOC(=O)c1ccc2c(c1)OCC1C2Nc2ccc(CB(O)O)cc2C1(C)C` (stereo not shown) [Number 11, 3-methylbut-2-enyl 9-(dihydroxyboramethyl)-7,7-dimethyl-7,12,12a,6a-tetrahydrochromano[4,3-b]quinoline-3-carboxylate] to `CC(C)=CCOC(=O)c1ccc2c(c1)OCC1C2Nc2ccc(C(O)(C(F)(F)F)C(F)(F)F)cc2C1(C)C` (stereo not shown) [Number 12, 3-methylbut-2-enyl 7,7-dimethyl-9-[2,2,2-trifluoro-1-hydroxy-1-(trifluoromethyl)ethyl]-7,12,12a,6a-tetrahydrochromano[4,3-b]quinoline-3-carboxylate], the “ABCA1 Induction Fold Increase” value rises from 1.7 FOLD INCREASE to 4.6 FOLD INCREASE.

Going from `COc1cccc2c1[C@H]1Nc3ccc(-c4ccc(C(N)=O)cc4)cc3C(C)(C)[C@H]1CO2` [Number 108, 4-((12aS,6aR)-1-methoxy-7,7-dimethyl-7,12,12a,6a-tetrahydrochromano[4,3-b]quinolin-9-yl)benzamide] to `COc1cccc2c1C1Nc3ccc(C(N)=O)cc3C(C)(C)C1CO2` (stereo not shown) [Number 45, 1-methoxy-7,7-dimethyl-7,12,12a,6a-tetrahydrochromano[4,3-b]quinoline-9-carboxamide], the “ABCA1 Induction Fold Increase” value rises from 4.7 FOLD INCREASE to 4.9 FOLD INCREASE.

First: COc1cccc2c1OC[C@@H]1[C@H]2Nc2ccc(F)cc2C1(C)C [Number 48, (6aS,12aR)-9-fluoro-4-methoxy-7,7-dimethyl-7,12,12a,6a-tetrahydrochromano[4,3-b]quinoline]
Second: COc1cccc2c1OC[C@@H]1[C@@H]2Nc2ccc(C(C)C)cc2C1(C)C [Number 47, (12aS,6aS)-4-methoxy-7,7-dimethyl-9-(methylethyl)-7,12,12a,6a-tetrahydrochromano[4,3-b]quinoline]
The “ABCA1 Induction Fold Increase” value of the first is higher: 3.7 FOLD INCREASE for the first, 3.6 FOLD INCREASE for the second.

Going from `CC1(C)c2cc(C(O)(C(F)(F)F)C(F)(F)F)ccc2N[C@@H]2c3cc(Br)ccc3OC[C@H]21` [Number 3, 2-((12aS,6aS)-2-bromo-7,7-dimethyl(7,12,12a,6a-tetrahydrochromano[4,3-b]quinolin-9-yl))-1,1,1,3,3,3-hexafluoropropan-2-ol] to `COc1cc(-c2ccccc2)cc2c1OC[C@H]1[C@@H]2Nc2ccc(C(O)(C(F)(F)F)C(F)(F)F)cc2C1(C)C` [Number 77, 2-((12aS,6aR)-4-methoxy-7,7-dimethyl-2-phenyl(7,12,12a,6a-tetrahydrochromano[4,3-b]quinolin-9-yl))-1,1,1,3,3,3-hexafluoropropan-2-ol], the “ABCA1 Induction Fold Increase” value rises from 3.0 FOLD INCREASE to 5.3 FOLD INCREASE.

Compared with `COc1cccc2c1OC[C@@H]1[C@@H]2Nc2ccccc2C1(C)C` [Number 38, (12aS,6aS)-4-methoxy-7,7-dimethyl-7,12,12a,6a-tetrahydrochromano[4,3-b]quinoline], `COc1cccc2c1OCC1C2Nc2ccc(C(N)=S)cc2C1(C)C` (stereo not shown) [Number 58, amino(4-methoxy-7,7-dimethyl(7,12,12a,6a-tetrahydrochromano[4,3-b]quinolin-9-yl))methane-1-thione] is lower in “ABCA1 Induction Fold Increase” value: 7.0 FOLD INCREASE for the first, 6.2 FOLD INCREASE for the second.

Compared with `COC(=O)c1cc2c(cc1OC)NC1c3cc(Br)ccc3OCC1C2(C)C` (stereo not shown) [Number 6, methyl 2-bromo-10-methoxy-7,7-dimethyl-7,12,12a,6a-tetrahydrochromano[4,3-b]quinoline-9-carboxylate], `COc1cccc2c1OCC1C2Nc2ccc(-c3cccc(C(=O)OC(C)C)c3)cc2C1(C)C` (stereo not shown) [Number 60, methylethyl 3-(4-methoxy-7,7-dimethyl-7,12,12a,6a-tetrahydrochromano[4,3-b]quinolin-9-yl)benzoate] is higher in “ABCA1 Induction Fold Increase” value: 1.6 FOLD INCREASE for the first, 4.4 FOLD INCREASE for the second.

First: CCOP(=O)(Cc1ccc2c(c1)C(C)(C)C1COc3cccc(OC)c3C1N2)OCC (stereo not shown) [Number 90, diethoxy[(1-methoxy-7,7-dimethyl(7,12,12a,6a-tetrahydrochromano[4,3-b]quinolin-9-yl))methyl]phosphino-1-one]
Second: COc1cccc2c1C1Nc3ccc(-c4nncn4C)cc3C(C)(C)C1CO2 (stereo not shown) [Number 74, 1-methoxy-7,7-dimethyl-9-(4-methyl(1,2,4-triazol-3-yl))-7,12,12a,6a-tetrahydrochromano[4,3-b]quinoline]
The “ABCA1 Induction Fold Increase” value of the first is lower: 7.6 FOLD INCREASE for the first, 7.9 FOLD INCREASE for the second.

same assay, conditions: Homo sapiens, 10 μM test compound, 18-20 hours, read-out: ABCA1 Induction Fold Increase over DMSO Vehicle

Going from `COc1cc(I)cc2c1OC[C@@H]1[C@@H]2Nc2ccc(-n3ncc(C(=O)O)c3C)cc2C1(C)C` [Number 177, 1-((6aS,12aS)-6a,7,12,12a-tetrahydro-2-iodo-4-methoxy-7,7-dimethyl-6H-chromeno[4,3-b]quinolin-9-yl)-5-methyl-1H-pyrazole-4-carboxylic acid] to `COc1cc(I)cc2c1OC[C@H]1[C@@H]2Nc2ccc(-n3ncc(C(=O)O)c3C)cc2C1(C)C` [Number 178, 1-((6aR,12aS)-6a,7,12,12a-tetrahydro-2-iodo-4-methoxy-7,7-dimethyl-6H-chromeno[4,3-b]quinolin-9-yl)-5-methyl-1H-pyrazole-4-carboxylic acid], the fold induction at 10 µM rises from 2.6 to 5.1.

First: COc1cc(-c2cn[nH]c2)cc2c1OC[C@@H]1[C@@H]2Nc2ccc(-c3cnco3)cc2C1(C)C [Number 160, (6aS,12aS)-6a,7,12,12a-tetrahydro-4-methoxy-7,7-dimethyl-9-(oxazol-5-yl)-2-(1H-pyrazol-4-yl)-6H-chromeno[4,3-b]quinoline]
Second: COc1cc(-c2cn[nH]c2)cc2c1OC[C@H]1[C@@H]2Nc2ccc(C#N)cc2C1(C)C [Number 182, (6aR,12aS)-6a,7,12,12a-tetrahydro-4-methoxy-7,7-dimethyl-2-(1H-pyrazol-4-yl)-6H-chromeno[4,3-b]quinoline-9-carbonitrile]
The fold induction at 10 µM of the first is higher: 4.7 for the first, 4.6 for the second.

First: CCCCN1c2ccccc2C(C)(C)[C@H]2COc3cccc(OC)c3[C@H]21 [Number 174, (6aR,12aS)-12-butyl-6a,7,12,12a-tetrahydro-1-methoxy-7,7-dimethyl-6H-chromeno[4,3-b]quinoline]
Second: COc1ccc2c(c1)C(C)(C)[C@H]1COc3cccc(OC)c3[C@H]1N2Cc1ccccc1 [Number 158, (6aR,12aS)-12-benzyl-6a,7,12,12a-tetrahydro-1,9-dimethoxy-7,7-dimethyl-6H-chromeno[4,3-b]quinoline]
The fold induction at 10 µM of the first is lower: 1.9 for the first, 9.2 for the second.

Compared with `CN(C)C(=O)CCc1ccc2c(c1)C1Nc3ccc(C(O)(C(F)(F)F)C(F)(F)F)cc3C(C)(C)C1CO2` (stereo not shown) [Number 39, 3-{7,7-dimethyl-9-[2,2,2-trifluoro-1-hydroxy-1-(trifluoromethyl)ethyl](7,12,12a,6a-tetrahydrochromano[4,3-b]quinolin-2-yl)}-N,N-dimethylpropanamide], `CCOC(=O)c1cnn(-c2ccc3c(c2)C(C)(C)[C@H]2COc4cccc(OC)c4[C@H]2N3)c1` [Number 135, ethyl 1-((6aR,12aS)-6a,7,12,12a-tetrahydro-1-methoxy-7,7-dimethyl-6H-chromeno[4,3-b]quinolin-9-yl)-1H-pyrazole-4-carboxylate] is higher in fold induction at 10 µM: 3.4 for the first, 6.4 for the second.

Going from `COC(=O)c1ccc2c(c1)C(C)(C)[C@H]1COc3c(OC)cc(Br)cc3[C@H]1N2` [Number 151, (6aR,12aS)-methyl 2-bromo-6a,7,12,12a-tetrahydro-4-methoxy-7,7-dimethyl-6H-chromeno[4,3-b]quinoline-9-carboxylate] to `COc1cc(Br)cc2c1OC[C@H]1[C@@H]2Nc2ccc(-c3nnn[nH]3)cc2C1(C)C` [Number 164, (6aR,12aS)-2-bromo-6a,7,12,12a-tetrahydro-4-methoxy-7,7-dimethyl-9-(1H-tetrazol-5-yl)-6H-chromeno[4,3-b]quinoline], the fold induction at 10 µM falls from 6.3 to 5.6.

`COc1cccc2c1OC[C@H]1[C@@H]2Nc2ccc(-c3nc(C(=O)O)co3)cc2C1(C)C` [Number 146, 2-((6aR,12aS)-6a,7,12,12a-tetrahydro-4-methoxy-7,7-dimethyl-6H-chromeno[4,3-b]quinolin-9-yl)oxazole-4-carboxylic acid] gave a fold induction at 10 µM of 8.2.
